From patent publication US20110015208A1, “PHARMACEUTICAL COMPOSITIONS CONTAINING DOPAMINE RECEPTOR LIGANDS AND METHODS OF TREATMENT USING DOPAMINE RECEPTOR LIGANDS” (priority 2007, published 2011)
Where a name gives a salt, the structure may show the parent alone.

Assays:
[1] = test system: basal locomotor activity of mice; assay: Open field, basal locomotor activity of mice (Example 4B); type: in vivo, mouse; conditions: test condition water
Protocol: (§1) Cariprazine hydrochloride and escitalopram oxalate were evaluated for anti-manic effects using the amphetamine/chlordiazepoxide (AMPH/CDP) hyperactivity test.
(§2) Male C57B1/6J mice (8 weeks old) from Jackson Laboratories (Bar Harbor, Me.) were used in this study. Upon receipt, mice were assigned unique identification numbers (tail marked) and were group housed (4 mice/cage) in OPTI mouse ventilated cages. All animals remained housed in groups of four during the remainder of the study. During the period of acclimation, mice were examined on a regular basis, handled, and weighed to assure adequate health and suitability. Mice were maintained on a 12/12 light/dark cycle. The room temperature was maintained between 20 and 23° C. with a relative humidity maintained between 30% and 70%. Chow and water were provided ad libitum for the duration of the study. In each test, animals were randomly assigned across treatment groups.
(§3) Distance traveled is measured by consecutive beam breaks.
(§4) Data was analyzed by analysis of variance (ANOVA) followed by Fisher PLSD post-hoc analysis when appropriate. An effect was considered significant if p<0.05. Outliers that fell above and below two standard deviations from the mean were removed from the final analysis.

[2] = test system: extracellular serotonin (5-HT) in the frontal cortex; assay: Dual-probe microdialysis, serotonin in frontal cortex of freely-moving rats; type: in vivo, rat
Protocol: (§5) A dual-probe microdialysis study was conducted to determine the effects of oral administration of cariprazine hydrochloride, alone and in combination with escitalopram oxalate (administered subcutaneously), on extracellular concentrations of acetylcholine (ACh), dopamine (DA) and serotonin (5-HT) in the frontal cortex of freely-moving rats.
(§6) Experiments were carried out in male Sprague Dawley rats (250-350 g body weight; Charles River, UK). Animals were housed in groups of six on a 12 h/12 h light/dark cycle (lights on at 07.30 h), at an ambient temperature of 21±2° C. and 55±20% humidity. Food and water were available ad libitum. Animals were allowed to acclimatise to these conditions for at least 5 days prior to the study.
(§7) Rats were anaesthetised with isoflurane (5% to induce, 2% to maintain) in an O2/N2O (1 litre/min each) mixture delivered via an anaesthetic unit (St Bernard Medical Services, UK). […] Samples were measured from the same side in each rat (e.g. left probe was used to measure ACh and right probe was used to measure DA and 5-HT). […]

[3] = test system: extracellular dopamine (DA) in the frontal cortex; assay: Dual-probe microdialysis, dopamine in frontal cortex of freely-moving rats; type: in vivo, rat
Protocol: as §5, §6, §7

[4] = test system: d-amphetamine/chlordiazepoxide mixture (AMPH/CDP)-induced hyperactivity in mice; assay: d-Amphetamine/chlordiazepoxide (AMPH/CDP) hyperactivity test (Example 4B); type: in vivo, mouse; conditions: for Total Distance Traveled [mean ± SEM]: test condition AMPH/CDP
Protocol: as §1, §2
(§8) d-Amphetamine sulfate (Sigma, 4.0 mg/kg) and chlordiazepoxide (CDP; Sigma, 2.5 mg/kg) were dissolved in sterile water and were administered intraperitoneally at a dose volume of 10 ml/kg.
as §3, §4

[5] = test system: d-amphetamine/chlordiazepoxide mixture (AMPH/CDP)-induced hyperactivity in mice; assay: d-Amphetamine/chlordiazepoxide (AMPH/CDP) hyperactivity test (Example 4A); type: in vivo, mouse; conditions: for Total Distance Traveled [mean ± SEM]: test condition AMPH/CDP, 60 min pretreatment
Protocol: as §1
as §2, with “C57B1/6J mice from Jackson” for “C57B1/6J mice (8 weeks old) from Jackson”, “this study. Mice were received at 6-weeks of age. Upon receipt,” for “this study. Upon receipt,”, “group housed with 4 mice/cage. All animals” for “group housed (4 mice/cage) in OPTI mouse ventilated cages. All animals”, “the study. All mice were acclimated to the colony room for at least two weeks prior to testing and were subsequently tested at an average age of 8 weeks of age. During the” for “the study. During the”
as §8, §3, §4

[6] = test system: extracellular acetylcholine (ACh) in the frontal cortex; assay: Dual-probe microdialysis, acetylcholine in frontal cortex of freely-moving rats; type: in vivo, rat; conditions: for change in basal ACh levels compared to vehicle+saline-treated controls: escitalopram oxalate 1.0 mg/kg sc
Protocol: as §5, §6
Rats were anaesthetised with isoflurane (5% to induce, 2% to maintain) in an O2/N2O (1 litre/min each) mixture delivered via an anaesthetic unit (St Bernard Medical Services, UK). Concentric microdialysis probes with 2 mm exposed polyarylethersulphone (PAES) membrane tip (CMA) were stereotaxically implanted bilaterally into the prefrontal cortex (coordinates: AP: +3.2 mm; L: +/−2.5 mm relative to bregma; V: −4.0 mm relative to the skull surface; taken from the stereotaxic atlas of Paxinos and Watson (Paxinos G, Watson C., The Rat Brain in Stereotaxic Coordinates, 2nd Edition, London: Academic Press, 1986). The upper incisor bar was set at 3.3 mm below the interaural line so that the skull surface between bregma and lambda was horizontal. The coordinates for each probe were identical from bregma except for the lateral measurement as one probe was placed to the left of the midline and the other to the right. Samples were measured from the same side in each rat (e.g. left probe was used to measure ACh and right probe was used to measure DA and 5-HT). Additional burr holes were made for skull screws (stainless steel) and the probes were secured using dental cement. […]

[7] = test system: basal locomotor activity of mice; assay: Open field, basal locomotor activity of mice (Example 4A); type: in vivo, mouse; conditions: for Total Distance Traveled [mean ± SEM]: test condition water, 60 min pretreatment
Protocol: as §1
as §2, with “C57B1/6J mice from Jackson” for “C57B1/6J mice (8 weeks old) from Jackson”, “this study. Mice were received at 6-weeks of age. Upon receipt,” for “this study. Upon receipt,”, “group housed with 4 mice/cage. All animals” for “group housed (4 mice/cage) in OPTI mouse ventilated cages. All animals”, “the study. All mice were acclimated to the colony room for at least two weeks prior to testing and were subsequently tested at an average age of 8 weeks of age. During the” for “the study. During the”
as §3, §4

[8] = cariprazine HCl 0.03 mg/kg oral
[9] = cariprazine HCl 0.10 mg/kg oral
[10] = cariprazine hydrochloride alone 0.03, 0.1 and 0.3 mg/kg po
[11] = cariprazine hydrochloride 0.10 mg/kg oral
[12] = escitalopram oxalate 0.10 mg/kg oral
[13] = escitalopram oxalate 0.50 mg/kg oral
[14] = escitalopram oxalate 1.0 mg/kg sc

Structure (SMILES): CN(C)C(=O)N[C@H]1CC[C@H](CCN2CCN(c3cccc(Cl)c3Cl)CC2)CC1 [Cariprazine hydrochloride, trans-4-{2-[4-(2,3-dichlorophenyl)-piperazin-1-yl]-ethyl}-N,N-dimethylcarbamoyl-cyclohexylamine hydrochloride]
- Total Distance Traveled [mean ± SEM] [1, 8]: 4013 ± 343 cm/60 min
- Total Distance Traveled [mean ± SEM] [1, 9]: 2697 ± 259 cm/60 min
- efflux of 5-HT in the frontal cortex [2, 10]: no significant effect
- efflux of DA in the frontal cortex [3, 10]: no significant effect
- effect on enhanced locomotor activity produced by the CDP+amphetamine mixture [4, 11]: significantly attenuated
- Total Distance Traveled [mean ± SEM] [4, 8]: 32628 ± 2510 cm/60 min
- Total Distance Traveled [mean ± SEM] [4, 9]: 22594 ± 2838 cm/60 min
- effect on mixture-induced hyperactivity ([5]; cariprazine hydrochloride 0.10 and 0.30 mg/kg oral): significantly decreased
- Total Distance Traveled [mean ± SEM] ([5]; 0.03 mg/kg oral): 32122 ± 2942 cm/60 min
- Total Distance Traveled [mean ± SEM] ([5]; 0.10 mg/kg oral): 13688 ± 2349 cm/60 min
- Total Distance Traveled [mean ± SEM] ([5]; 0.30 mg/kg oral): 2525 ± 204 cm/60 min
- efflux of ACh in the frontal cortex [6, 10]: no significant effect
- effect on basal locomotor activity compared to water [7, 11]: trend toward a significant decrease
- effect on basal activity compared to water ([7]; cariprazine hydrochloride 0.30 mg/kg oral): significantly decreased
- Total Distance Traveled [mean ± SEM] ([7]; 0.03 mg/kg oral): 4056 ± 427 cm/60 min
- Total Distance Traveled [mean ± SEM] ([7]; 0.10 mg/kg oral): 1726 ± 112 cm/60 min
- Total Distance Traveled [mean ± SEM] ([7]; 0.30 mg/kg oral): 917 ± 73 cm/60 min

Structure (SMILES): CN(C)CCC[C@@]1(c2ccc(F)cc2)OCc2cc(C#N)ccc21 [Escitalopram oxalate, 1-[3-(dimethyl-amino)propyl]-1-(p-fluorophenyl)-5-phthalancarbonitrile]
- Total Distance Traveled [mean ± SEM] [1, 12]: 5551 ± 382 cm/60 min
- Total Distance Traveled [mean ± SEM] [1, 13]: 5238 ± 242 cm/60 min
- basal 5-HT levels [2, 14]: no effect
- basal DA levels [3, 14]: no effect
- effect on mixture-induced locomotor activity ([4]; escitalopram oxalate alone, either dose tested (0.10 and 0.50 mg/kg oral)): no significant effect
- Total Distance Traveled [mean ± SEM] [4, 12]: 39700 ± 3477 cm/60 min
- Total Distance Traveled [mean ± SEM] [4, 13]: 40881 ± 3123 cm/60 min
- effect on mixture-induced hyperactivity ([5]; escitalopram oxalate 0.5 mg/kg oral): trend toward a significant decrease
- effect on mixture-induced hyperactivity ([5]; escitalopram oxalate 5.0 mg/kg oral): increased
- Total Distance Traveled [mean ± SEM] ([5]; 0.50 mg/kg oral): 30067 ± 1901 cm/60 min
- Total Distance Traveled [mean ± SEM] ([5]; 2.0 mg/kg oral): 36112 ± 1934 cm/60 min
- Total Distance Traveled [mean ± SEM] ([5]; 5.0 mg/kg oral): 39639 ± 1582 cm/60 min
- change in basal ACh levels compared to vehicle+saline-treated controls ([6]; 100 min post-administration): −55%
- change in basal ACh levels compared to vehicle+saline-treated controls ([6]; 240 min post-administration): −56%
- Total Distance Traveled [mean ± SEM] ([7]; 0.50 mg/kg oral): 4435 ± 389 cm/60 min
- Total Distance Traveled [mean ± SEM] ([7]; 5.0 mg/kg oral): 6499 ± 445 cm/60 min
